Assay: Antagonist activity at rabbit CXCR2 by neutrophil chemotaxis assay

| SMILES | IC50 [nM] |
| --- | --- |
| CN(C)S(=O)(=O)NC(=O)CCCc1c(-c2ccc(F)cc2)[nH]c2ccc(C#N)cc12 [4-[5-cyano-2-(4-fluorophenyl)-1H-indol-3-yl]-N-(dimethylsulfamoyl)butanamide] | 700 |
| O=C(NCCc1c(-c2ccc(F)cc2)[nH]c2ccc(Br)cc12)NS(=O)(=O)c1ccccc1 [1-(2-(5-bromo-2-(4-fluorophenyl)-1H-indol-3-yl)ethyl)-3-(phenylsulfonyl)urea] | 1700 |
| CNS(=O)(=O)NC(=O)CCCc1c(-c2ccc(F)cc2)[nH]c2ccc(C#N)cc12 [4-[5-cyano-2-(4-fluorophenyl)-1H-indol-3-yl]-N-[(methylamino)sulfonyl]butanamide] | 1300 |
| N#Cc1ccc2[nH]c(-c3ccc(F)cc3)c(CCCC(=O)NS(=O)(=O)C(F)(F)F)c2c1 [4-(5-cyano-2-(4-fluorophenyl)-1H-indol-3-yl)-N-(trifluoromethylsulfonyl)butanamide] | 3000 |
| CS(=O)(=O)NC(=O)NCCc1c(-c2ccc(F)cc2)[nH]c2ccc(Br)cc12 [1-(2-(5-bromo-2-(4-fluorophenyl)-1H-indol-3-yl)ethyl)-3-(methylsulfonyl)urea] | 5800 |
| CS(=O)(=O)NC(=O)CCCc1c(-c2ccc(F)cc2)[nH]c2ccc(C#N)cc12 [4-(5-cyano-2-(4-fluorophenyl)-1H-indol-3-yl)-N-(methylsulfonyl)butanamide] | 2100 |
